Laboratory results as given in PubChem BioAssay (NCI).
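Following 48 hours of exposure in 96-well plates, responses at five concentrations were used to interpolate endpoints linearly. GI50 = concentration required for 50% inhibition of growth. TGI: total growth inhibition.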

Assays:
Assay in all cases: NCI tumour cell line growth inhibition, 48 h
[1] = system: RPMI-8226 leukemia
[2] = system: SK-OV-3 ovarian
[3] = system: SK-MEL-2 melanoma
[4] = system: HCT-116 colon
[5] = system: SF-268 CNS
[6] = system: UACC-257 melanoma
[7] = system: ACHN renal
[8] = system: SW-620 colon
[9] = system: UACC-62 melanoma
[10] = system: RXF 393 renal

## O=C1c2ccccc2-c2c1c1ccccc1c(=O)n2CCCNCCNCCCn1c2c(c3ccccc3c1=O)C(=O)c1ccccc1-2
[1]
  GI50: < 0.01 µM
  TGI: 0.221 µM
[2]
  GI50: 1.33 µM
[3]
  GI50: 2.02 µM
[4]
  GI50: < 0.01 µM
  TGI: 0.163 µM
[5]
  GI50: 0.0166 µM
  TGI: 2.5 µM
[6]
  GI50: 1.24 µM
  TGI: 3.47 µM
[7]
  GI50: < 0.01 µM
  TGI: 1.31 µM
[8]
  GI50: < 0.01 µM
  TGI: 0.258 µM
[9]
  GI50: 0.174 µM
  TGI: 1.88 µM

## CCC12CCC[C@@]13C=C[C@H](O3)C(C)(C)C2=O (some centres undefined)
[1]
  TGI: > 100 µM
[2]
  TGI: > 100 µM
[3]
  TGI: > 100 µM
[4]
  TGI: > 100 µM
[5]
  TGI: > 100 µM
[6]
  TGI: > 100 µM
[7]
  TGI: > 100 µM
[10]
  TGI: > 100 µM
[8]
  TGI: > 100 µM
[9]
  TGI: > 100 µM

## CC1(C)N=C(/C(Cl)=[N+](/[O-])C(=O)c2ccc(Cl)cc2)C(C)(C)N1O
[1]
  TGI: 72.6 µM
[2]
  TGI: > 100 µM
[3]
  TGI: > 100 µM
[4]
  TGI: 32.5 µM
[5]
  TGI: 89.2 µM
[6]
  TGI: 38.1 µM
[7]
  TGI: > 100 µM
[10]
  TGI: 38 µM
[8]
  TGI: 44.9 µM

## Cc1ccc(NC(=O)CC/C(CC(=O)C(C)(C)C)=N/NC(=O)c2cc3ccccc3cc2O)cc1C
[2]
  TGI: > 100 µM
[3]
  TGI: > 100 µM
[4]
  TGI: > 100 µM
[5]
  TGI: > 100 µM
[6]
  TGI: > 100 µM
[7]
  TGI: > 100 µM
[10]
  TGI: > 100 µM
[8]
  TGI: > 100 µM
[9]
  TGI: 66 µM
